Laboratory results reported in patent US4224326A, “Immunosuppressive agents” (Eli Lilly and Company, priority 1978, dated 1980).
Like-named read-outs stand apart in the source and are kept apart here.

How the values were obtained:
GVH reaction = experiment: Graft-versus-host (GVH) reaction, spleen weight; assay type: in vivo, mouse (C57BL spleen cells into C57BL×C3H F1 hybrid)
Protocol: In this test, parental (C57BL) mouse spleen cells are injected into mice of an F1 hybrid strain (C57BL×C3H). […] As a consequence, the recipient's spleen becomes enlarged. Immunosuppression prevents or reduces this enlargement. Thus, spleen weights provide a measure of the GVH reaction and its reduction under immunosuppression. A modification of Simonsen's original procedure (Ann. N.Y. Acad. Sci. 73:834, 1958) was employed. Large crops of spleen cells were obtained, without the generally employed manual teasing of spleens, by using Waring blendors with the cutting blades reversed. Two six-second blending periods buffeted the spleens (batches of 25 C57BL spleens in 25-ml saline) sufficiently to free the cells from the connective tissue. The latter was removed by filtration through several thicknesses of cheesecloth. Cell suspensions prepared in this fashion were standardized, by means of Levy-Hausser chamber counts, to contain 6×10^8 nucleated cells per ml. Groups of ten 16-18 gram C57BL×C3H mice were injected intraperitoneally with 1 ml of the donor cell suspension. Treatment, by the oral or subcutaneous route in 0.2 ml, was instituted 3 days prior to cell injection and continued daily for 13 days. Control animals received only cells and vehicle. The spleens were removed and weighed 10 days following cell injection. The results were expressed as mg spleen/gram body weight. Since the injection of syngeneic, i.e., C57BL×C3H, cells into the recipient mice produces a minor degree of splenomegaly, spleen weights of such animals were used to define 100% suppression of the GVH component in calculating percents of inhibition produced by the immunosuppressive compounds.

[1] = system: antibody (hemagglutinin) production against sheep red blood cells; experiment: Mouse hemagglutinin assay, oral administration (antibody reduction); assay type: in vivo, mouse (male, random-bred, Swiss); conditions: Erythrocyte, nine daily doses, pooled sera of 5 mice, read-out: minimum effective dose (MED), lowest dose producing 75 percent or greater antibody reduction
Protocol: (§1) Groups of five 20-gram, male, random-bred, Swiss mice received intravenous injections of 5×10^7 sheep red blood cells. The cells for these injections were prepared from lamb's blood (collected in Alsever's solution) by washing three times with 0.85 percent saline and resuspending in 0.85 percent saline. Nine daily doses of each compound to be tested, solubilized in polyethylene glycol 400, were administered orally in 0.1 ml. doses, commencing three days prior to red blood cell injection. Several dose levels of each compound were employed, at 2-fold increments. A control group of mice, receiving a red blood cell injection and nine daily doses of vehicle instead of drug, was included. Six days after the antigen injections, the mice were bled by cardiac puncture and the sera from each 5-mouse group pooled. The serum pools, following complement inactivation, were assayed for hemagglutinin content by standard procedures, utilizing a mixture of serial 2-fold saline dilutions of the test sera with 0.5 percent sheep red blood cell suspensions in plastic depression trays. Following incubation of the trays for 3 hours at 37° C., the hemagglutination patterns were graded.

[2] = system: antibody (hemagglutinin) titer against sheep red blood cells; experiment: Individual serum assay procedure (hemagglutinin titer); assay type: in vivo; conditions: Erythrocyte, ten daily doses, 10-mouse groups, read-out: Endpoint Dose (p <0.05), lowest dose significantly lowering antibody titer
Protocol: as §1, with “graded. […] The mice were bled as before, but the sera were titered individually rather than as a pool. Mean hemagglutinin values (log2)±S.E. were calculated for each 10-mouse group and p values (by Student's t Test), in comparison with the control group, were determined. […] The drugs were administered orally or subcutaneously in ten daily doses, commencing three days prior to red blood cell injection. Drugs were suspended in a vehicle composed of saline containing 0.125 percent methylcellulose and 0.2 percent nonionic emulsifying agent. Antibody (hemagglutinin) determinations were made seven days following a red blood cell injection.” for “graded.”

[3] = system: adjuvant-induced arthritis (uninjected hind paw swelling, bone damage); experiment: Adjuvant-induced arthritis test in rats; assay type: in vivo, rat (male Lewis-Wistar); conditions: 30 mg/kg/day oral; for % inhibition (uninjected paw volume): printed under Day 18, formula in footnote drawing
[4] = Day 11, TB control 2.02 ± 0.037
[5] = Day 14, TB control 2.69 ± 0.106
[6] = Day 16, TB control 3.26 ± 0.202
[7] = Day 18, TB control 3.65 ± 0.227

COc1ccc2nc(NC(=O)Nc3ccccc3)sc2c1 [1-(6-methoxy-2-benzothiazolyl)-3-phenylurea, reference compound]
Percent Inhibition (GVH reaction; 12.5 mg/kg × 13, oral, illustrative calculation with Syn. Control 5.20): 74%
Mg Spleen/g Body Wt. ± S.E. (GVH reaction; 12.5 mg/kg × 13, oral, p<0.01 vs GVH control (11.55 ± 1.01), groups of 5 mice): 6.86 ± 0.80 mg spleen/g body wt

Brc1ccc(C2Nc3cccc4cccc(c34)N2)cc1 [2,3-dihydro-2-(p-bromophenyl)-1H-perimidine]
minimal effective dose [1]: 25 mg/kg

Brc1ccc(C2=Nc3cccc4cccc(c34)N2)cc1Br.Cl [2-(3,4-dibromophenyl)-1H-perimidine hydrochloride]
minimal effective dose [1]: 50 mg/kg

Cl.Clc1ccc(C2=Nc3cccc4cccc(c34)N2)cc1Cl [2-(3,4-dichlorophenyl)-1H-perimidine hydrochloride]
minimal effective dose [1]: 12.5 mg/kg
minimal effective dose ([2]; sc, subcutaneous): < 3.1 mg/kg
minimal effective dose ([2]; oral): < 3.1 mg/kg

Cl.Clc1ccc(C2=Nc3cccc4cccc(c34)N2)cc1Br [2-(3-bromo-4-chlorophenyl)-1H-perimidine hydrochloride]
minimal effective dose [1]: 50 mg/kg

Cl.Clc1cc(C2=Nc3cccc4cccc(c34)N2)ccc1Br [2-(4-bromo-3-chlorophenyl)-1H-perimidine hydrochloride]
minimal effective dose [1]: 50 mg/kg

Brc1cccc(C2=Nc3cccc4cccc(c34)N2)c1.Cl [2-(m-bromophenyl)-1H-perimidine hydrochloride]
minimal effective dose [1]: 100 mg/kg

Cl.FC(F)(F)c1cccc(C2=Nc3cccc4cccc(c34)N2)c1 [2-(m-trifluoromethylphenyl)-1H-perimidine hydrochloride]
minimal effective dose [1]: 100 mg/kg

Cl.FC(F)(F)C(F)(F)Oc1ccc(C2=Nc3cccc4cccc(c34)N2)cc1 [2-(p-PENTAFLUOROETHOXYPHENYL)-1H-PERIMIDINE HYDROCHLORIDE]
minimal effective dose [1]: 100 mg/kg

F.FC(F)(F)Oc1ccc(C2=Nc3cccc4cccc(c34)N2)cc1 [2-(p-TRIFLUOROMETHOXYPHENYL)-1H-PERIMIDINE HYDROFLUORIDE]
minimal effective dose [1]: < 100 mg/kg
minimal effective dose ([2]; oral): 12.5 mg/kg

Cl.FC(F)(F)c1ccc(C2=Nc3cccc4cccc(c34)N2)cc1 [2-(p-TRIFLUOROMETHYLPHENYL)-1H-PERIMIDINE HYDROCHLORIDE]
minimal effective dose [1]: 6.25 mg/kg
minimal effective dose ([2]; sc, subcutaneous): < 1.6 mg/kg
minimal effective dose ([2]; oral): < 1.6 mg/kg
Percent Inhibition, GVH Series (GVH reaction; 1.6 mg/kg × 13, oral): 78%
Mg Spleen/g mouse weight (mean + S.E.) (GVH reaction; 1.6 mg/kg × 13, oral, p <0.05, control 8.64 ± 1.10): 5.66 ± 0.33 mg spleen/g mouse weight
Percent Inhibition, GVH Series (GVH reaction; 3.1 mg/kg × 13, oral): 96%
Mg Spleen/g mouse weight (mean + S.E.) (GVH reaction; 3.1 mg/kg × 13, oral, p <0.01, control 8.64 ± 1.10): 4.96 ± 0.31 mg spleen/g mouse weight
Percent Inhibition, GVH Series (GVH reaction; 6.2 mg/kg × 13, oral): 77%
Mg Spleen/g mouse weight (mean + S.E.) (GVH reaction; 6.2 mg/kg × 13, oral, p <0.05, control 8.64 ± 1.10): 5.67 ± 0.51 mg spleen/g mouse weight
Percent Inhibition, GVH Series (GVH reaction; 12.5 mg/kg × 13, oral): 53%
Mg Spleen/g mouse weight (mean + S.E.) (GVH reaction; 12.5 mg/kg × 13, oral, control 8.64 ± 1.10): 6.62 ± 1.17 mg spleen/g mouse weight
Percent Inhibition, GVH Series (GVH reaction; 25 mg/kg × 13, oral): 101%
Mg Spleen/g mouse weight (mean + S.E.) (GVH reaction; 25 mg/kg × 13, oral, p <0.005, control 8.64 ± 1.10): 4.75 ± 0.42 mg spleen/g mouse weight
Uninjected Paw Volume ([3]; Day 9, TB control 1.94 ± 0.028): 1.93 ± 0.081
Uninjected Paw Volume [3, 4]: 1.95 ± 0.079
Uninjected Paw Volume [3, 5]: 2.13 ± 0.148
Uninjected Paw Volume [3, 6]: 2.35 ± 0.233
Uninjected Paw Volume [3, 7]: 2.53 ± 0.39
Gross observation of X-ray photos, bone damage in injected and uninjected paws ([3]; day 18, bone damage very obvious in TB control): no bone damage
% inhibition (uninjected paw volume) [3]: 69%

Cl.FC(F)(F)Sc1ccc(C2=Nc3cccc4cccc(c34)N2)cc1 [2-(p-TRIFLUOROMETHYLTHIOPHENYL)-1H-PERIMIDINE HYDROCHLORIDE]
minimal effective dose [1]: < 100 mg/kg
minimal effective dose ([2]; oral): 50 mg/kg

Brc1ccc(C2=Nc3cccc4cccc(c34)N2)cc1.Cl [2-(p-bromophenyl)-1H-perimidine hydrochloride]
minimal effective dose [1]: 12.5 mg/kg
minimal effective dose ([2]; sc, subcutaneous): < 3.1 mg/kg
minimal effective dose ([2]; oral): 25 mg/kg

Brc1ccc(C2=Nc3cccc4cccc(c34)N2)cc1 [2-(p-bromophenyl)-1H-perimidine]
minimal effective dose [1]: 25 mg/kg
Percent Inhibition, GVH Series (GVH reaction; 3.1 mg/kg × 13, subcutaneous): 19%
Mg Spleen/g mouse weight (mean + S.E.) (GVH reaction; 3.1 mg/kg × 13, subcutaneous, control 8.84 ± 0.72): 8.08 ± 0.66 mg spleen/g mouse weight
Percent Inhibition, GVH Series (GVH reaction; 6.2 mg/kg × 13, subcutaneous): 66%
Mg Spleen/g mouse weight (mean + S.E.) (GVH reaction; 6.2 mg/kg × 13, subcutaneous, p <0.01, control 8.84 ± 0.72): 6.18 ± 0.39 mg spleen/g mouse weight
Percent Inhibition, GVH Series (GVH reaction; 12.5 mg/kg × 13, subcutaneous): 79%
Mg Spleen/g mouse weight (mean + S.E.) (GVH reaction; 12.5 mg/kg × 13, subcutaneous, p <0.005, control 8.84 ± 0.72): 5.64 ± 0.65 mg spleen/g mouse weight
Percent Inhibition, GVH Series (GVH reaction; 25 mg/kg × 13, subcutaneous): 84%
Mg Spleen/g mouse weight (mean + S.E.) (GVH reaction; 25 mg/kg × 13, subcutaneous, p <0.001, control 8.84 ± 0.72): 5.43 ± 0.41 mg spleen/g mouse weight
Percent Inhibition, GVH Series (GVH reaction; 50 mg/kg × 13, subcutaneous): 102%
Mg Spleen/g mouse weight (mean + S.E.) (GVH reaction; 50 mg/kg × 13, subcutaneous, p <0.001, control 8.84 ± 0.72): 4.70 ± 0.21 mg spleen/g mouse weight

Clc1ccc(C2=Nc3cccc4cccc(c34)N2)cc1 [2-(p-chlorophenyl)-1H-perimidine]
minimal effective dose [1]: 100 mg/kg

Cn1cnc([N+](=O)[O-])c1Sc1ncnc2nc[nH]c12 [Azathioprine, reference compound]
minimal effective dose [1]: 100 mg/kg

CC(C(=O)O)c1cccc(Oc2ccccc2)c1 (stereo not shown) [fenoprofen, reference compound]
Uninjected Paw Volume ([3]; Day 9, TB control 1.94 ± 0.028): 1.97 ± 0.023
Uninjected Paw Volume [3, 4]: 2.11 ± 0.07
Uninjected Paw Volume [3, 5]: 2.38 ± 0.099
Uninjected Paw Volume [3, 6]: 2.7 ± 0.107
Uninjected Paw Volume [3, 7]: 2.67 ± 0.128
% inhibition (uninjected paw volume) [3]: 23%
